Biological target: T1, PARP-5 (tankyrase-1, TNKS1) (Homo sapiens, UniProt O95271)
T1 construct: purchased BPS Bioscience Inc
T1 sequence (O95271 1-1327): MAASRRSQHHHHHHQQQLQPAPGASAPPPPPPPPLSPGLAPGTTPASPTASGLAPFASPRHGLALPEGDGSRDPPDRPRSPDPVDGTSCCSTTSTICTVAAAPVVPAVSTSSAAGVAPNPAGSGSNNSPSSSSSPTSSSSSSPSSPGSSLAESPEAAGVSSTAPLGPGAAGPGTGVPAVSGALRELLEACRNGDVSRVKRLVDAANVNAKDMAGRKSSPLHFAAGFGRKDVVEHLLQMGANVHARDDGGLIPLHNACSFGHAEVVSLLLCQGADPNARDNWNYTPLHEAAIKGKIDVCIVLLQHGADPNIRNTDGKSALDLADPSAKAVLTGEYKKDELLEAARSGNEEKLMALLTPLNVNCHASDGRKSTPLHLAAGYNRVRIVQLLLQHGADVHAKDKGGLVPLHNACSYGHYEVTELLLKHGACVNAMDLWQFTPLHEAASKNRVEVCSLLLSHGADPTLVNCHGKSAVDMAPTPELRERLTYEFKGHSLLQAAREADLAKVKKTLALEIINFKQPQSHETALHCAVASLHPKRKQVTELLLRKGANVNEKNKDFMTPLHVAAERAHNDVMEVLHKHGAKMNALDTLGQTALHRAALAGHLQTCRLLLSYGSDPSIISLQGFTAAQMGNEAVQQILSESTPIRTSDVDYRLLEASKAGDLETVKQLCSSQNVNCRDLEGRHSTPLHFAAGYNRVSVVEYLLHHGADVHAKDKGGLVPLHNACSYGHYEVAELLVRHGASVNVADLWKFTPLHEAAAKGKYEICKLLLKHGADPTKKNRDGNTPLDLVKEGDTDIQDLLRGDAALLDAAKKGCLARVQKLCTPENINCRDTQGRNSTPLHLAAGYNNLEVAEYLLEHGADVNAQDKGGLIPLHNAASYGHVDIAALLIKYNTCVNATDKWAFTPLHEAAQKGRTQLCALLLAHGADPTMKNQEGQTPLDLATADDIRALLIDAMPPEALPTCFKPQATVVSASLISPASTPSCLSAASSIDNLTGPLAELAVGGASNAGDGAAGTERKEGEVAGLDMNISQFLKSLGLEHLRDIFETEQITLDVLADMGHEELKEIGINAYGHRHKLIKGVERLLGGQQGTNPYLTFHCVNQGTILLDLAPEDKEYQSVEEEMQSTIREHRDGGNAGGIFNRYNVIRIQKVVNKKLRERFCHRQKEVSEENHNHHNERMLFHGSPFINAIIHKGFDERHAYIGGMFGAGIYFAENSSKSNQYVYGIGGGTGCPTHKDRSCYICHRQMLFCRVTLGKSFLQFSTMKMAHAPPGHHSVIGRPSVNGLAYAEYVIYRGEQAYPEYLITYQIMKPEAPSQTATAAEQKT
Experiment: PARP-5 enzyme assay (TNKS1 Histone Ribosylation Assay kit)
Assay type: biochemical
Conditions: for PARP-5 inhibitory activity / PARP-5% inhibition: 50 μg/mL; for PARP-5% inhibition: Table 20 summary; for inhibition at 50 µg/mL: read-out: PARP-5% inhibition, Table 15, isolates at 50 μg/mL
Protocol: Poly (ADP-ribose) polymerase 5 (PARP-5, also known as tankyrase-1 or TNKS1), is a nuclear enzyme involved in repairing single strand DNA breaks. Agonists of PARP-5 induce DNA repair, but the cost of PARP-5 activation is to slow glycolysis and limit GLUT-4-mediated glucose uptake. Small-molecule inhibition of the PARP-5 enzyme potentiates antidiabetic activities by increasing glucose uptake and insulin sensitivity. Extracts and compounds from the arils of M. fragrans were tested by using the TNKS1 Histone Ribosylation Assay kit (BPS Bioscience Inc.) according to the kit protocol. First, microplate wells were coated with immobilized histone substrate (50 μL) overnight at 4° C., then washed 3 times with PBS-Tween (200 μL). The wells were treated with blocking buffer and washed 3 times with PBS-Tween. The reaction mixture, which contained TNKS assay buffer and NAD+, was added to each sample well. Diluted sample solutions were added to the corresponding wells to achieve final concentrations of 50 μg/mL, followed by TNKS1 enzyme. After 1 hour, the plates were washed 3 times with PBS-Tween and incubated with primary antibody (1:800) for another hour. Following PBS-Tween wash, the secondary-HRP antibody was added (1:1000), incubated for 30 minutes, and finally chemiluminescent substrate was added. The plates were immediately measured for luminescence in the FLUOstar Optima plate reader (BMG Labtechnologies, GmbH, Inc.). The positive control included TNKS1 enzyme, NAD+, and DMSO; the substrate control included enzyme and DMSO; and the negative control included NAD+ and DMSO.297,304 The mace ethyl acetate fractions were screened for PARP-5 inhibition (Table 4).

SMILES	PARP-5 inhibitory activity	PARP-5% inhibition [%]	inhibition at 50 µg/mL [%]
C/C=C/c1cc(OC)c2c(c1)[C@H](C)[C@@H](c1ccc3c(c1)OCO3)O2 [Compound 41, licarin B]	not effective PARP-5 inhibitors	<50	< 50
C/C=C/c1cc(OC)c2c(c1)[C@H](C)[C@@H](c1ccc(O)c(OC)c1)O2 [Compound 42, licarin A]	not effective PARP-5 inhibitors	<50	< 50
